Patent US9334267B2, “RAF inhibitor compounds” (Deciphera Pharmaceuticals, LLC, priority 2012, dated 2016)

Columns and labels:
human B-Raf V600E = biological target: T1, human B-Raf V600E (Homo sapiens, UniProt P15056, V600E); assay: Enzymatic assay of B-Raf V600E kinase activity (Raf/MEK1 ATPase, coupled PK/LDH, A340); assay type: biochemical; details: read-out: Enzyme IC50, nM B-Raf V600E
T1 construct: B-RafV600E (residues 433-726 containing V600E mutation) containing an N-terminal purification tag is expressed and purified; made in house
Method: (§1) Test compounds are evaluated for their inhibitory activities against one or more of human wild type B-Raf, human wild type C-Raf, human B-Raf V600E, human B-Raf V600E+T529I or human B-Raf V600E+G468A. T529I is a threonine to isoleucine B-Raf gatekeeper mutation and G468A is a B-Raf secondary mutation at G1403C in exon 11. The enzymatic assays of B-Raf, C-Raf and B-Raf mutations evaluate a property of Raf and MEK1 complex, which in the presence of ATP, catalyzes an enhanced ATP hydrolysis (Rominger, et al, Arch. Biochem. Biophys. 2007, 464: 130-137; US Patent Publication No. 2006/0211073). The ADP formed is monitored by the well-known coupled PK/LDH (pyruvate kinase/lactate dehydrogenase) system in the form of NADH oxidation, which can be monitored and detected spectrophotometrically by absorbance at 340 nm (A340; for principal of the method see Schindler et al, Science, 2000, 289: 1938-1942). Raf activated MEK1 ATPase activity is a property shared by all forms of Raf proteins.
B-RafV600E (residues 433-726 containing V600E mutation) containing an N-terminal purification tag is expressed and purified essentially as described previously (Wan et al, Cell, 2004, 116, 855-867).
(§2) Test compounds are evaluated for their inhibitory activities against one or more of wild type B-Raf, wild type C-Raf, B-Raf V600E, B-Raf V600E+T529I and B-Raf V600E+G468A. T529I is a B-Raf gatekeeper mutation and G468A is a B-Raf secondary mutation. The enzymatic assays of B-Raf, C-Raf and B-Raf mutations evaluate a property of Raf and MEK1 complex, which in the presence of ATP, catalyzes an enhanced ATP hydrolysis (Rominger, et al, Arch. Biochem. Biophys. 2007, 464: 130-137). The ADP formed is monitored by the well-known coupled PK/LDH (pyruvate kinase/lactate dehydrogenase) system in the form of NADH oxidation, which can be monitored and detected by absorbance at 340 nm (A340; for principal of the method see Schindler et al, Science, 2000, 289: 1938-1942). Raf activated MEK1 ATPase activity is a property shared by all forms of Raf proteins. In the B-Raf wild type enzymatic assay, the reaction mixture contains 1.2 nM B-Raf, 30 nM MEK1, 1000 uM ATP, 3.5 units (per 100 ul) of PK, 5 units (per 100 ul) of LDH, 1 mM phosphoenol pyruvate (PEP), and 280 uM of NADH. In the C-Raf assay, the reaction mixture contains 0.6 nM C-Raf, 26 nM MEK1, 2000 uM ATP, and the same amount of PK, LDH, PEP and NADH as above. In the B-Raf V600E assay, the reaction mixture contains […] B-Raf V600E, 26 nM MEK1, 200 uM ATP and the same amount of PK, LDH, PEP and NADH as above. In the B-RafV600E+T529I assay, the reaction mixture contains 6.2 nM B-Raf V600E+T529I, 30 nM MEK1, 200 uM ATP and the same amount of PK, LDH, PEP and NADH as above. In the B-Raf V600E+G468A assay, the reaction mixture contains 3.5 nM B-Raf, 30 nM MEK1, 200 uM ATP and the same amount of PK, LDH, PEP and NADH as above. All assays are started by mixing the above mixture with test compound and monitoring at A340 continuously for approximately 5 hr. […] In the aforementioned assays, the enzyme constructs can be screened prior to or after cleavage of the N-terminal purification tag.

human wild type C-Raf = biological target: T2, human wild type C-Raf (Homo sapiens, UniProt P04049); assay: Enzymatic assay of C-Raf kinase activity (Raf/MEK1 ATPase, coupled PK/LDH, A340); assay type: biochemical; details: read-out: Enzyme IC50, nM C-Raf
T2 construct: made in house
Method: as §1, §2

human wild type c-KIT = biological target: T3, human wild type c-KIT (Homo sapiens, UniProt P10721); assay: Enzymatic assay of c-Kit kinase activity (poly E4Y phosphorylation, coupled PK/LDH); assay type: biochemical
T3 construct: GST (N); made in house
From the text: c-Kit is an important oncogene, and its overexpression and genetic mutations often occur in melanoma and gastrointestinal stromal tumor (GIST) patients. In the c-Kit enzymatic assay, the phosphorylation of poly E4Y by ATP catalyzed by human c-Kit is monitored spectrophotometrically. The ADP produced from the kinase reaction is coupled to pyruvate kinase/lactate dehydrogenase (PK/LDH) reactions where NAD is formed from pyruvate and NADH. NADH can be detected by absorbance at 340 nm, as described above for enzymatic assays of kinase activities of B-Raf, C-Raf and B-Raf mutations.
The assay reaction mixture includes 6 nM human wild type c-KIT, 1 mg/mL Poly (Glu,Tyr) (Sigma), 1 mM Phosphoenol-pyruvate, 280 μM NADH, 5 U/3.5 U (per 100 ul) Pyruvate Kinase/Lactate Dehydrogenase, 85 mM Tris, pH 7.5, 17 mM MgCl2, 0.0042% Triton® X-100, 0.005% BSA, 1% DMSO. Test compound is incubated with the reaction mixture for 0.5 hour before adding 200 μM ATP to start the reaction at 30° C.

HT-29 cells = assay: HT-29 cell proliferation assay (resazurin); assay type: cell-based; details: Homo sapiens, V600E mutation, read-out: Cell Proliferation Inhibition IC50, nM HT-29
Method: HT-29 cells (catalog #HTB-38) are obtained from the American Type Culture Collection (ATCC, Manassas, Va.). Briefly, cells are grown in McCoy's 5A supplemented with 10% characterized fetal bovine serum (Invitrogen, Carlsbad, Calif.), and 1% Penicillin/Streptomycin/L-Glutamine at 37 degrees Celsius, 5% CO2, and 95% humidity. Cells are allowed to expand until reaching 75-90% confluency at which point they are subcultured or harvested for assay use. A serial dilution of test compound is dispensed into a 384-well black clear bottom plate in triplicate. One thousand two-hundred fifty cells are added per well in 50 μL complete growth medium in the 384-well plate. Plates are incubated for 67 hours at 37 degrees Celsius, 5% CO2, and 95% humidity. At the end of the incubation period, 10 μL of a 440 μM solution of resazurin (Sigma, St. Louis, Mo.) in PBS is added to each well of the plate and plates are incubated for an additional 5 hours at 37 degrees Celsius, 5% CO2, and 95% humidity. Plates are read on a Synergy2 reader (Biotek, Winooski, Vt.) using an excitation of 540 nm and an emission of 600 nm. Data is analyzed using Prism software (Graphpad, San Diego, Calif.) to calculate IC50 values.
The A375, HT-29, and Colo-205 cells (ATCC) harbor a V600E mutation.

T2 sequence (P04049 whole entry): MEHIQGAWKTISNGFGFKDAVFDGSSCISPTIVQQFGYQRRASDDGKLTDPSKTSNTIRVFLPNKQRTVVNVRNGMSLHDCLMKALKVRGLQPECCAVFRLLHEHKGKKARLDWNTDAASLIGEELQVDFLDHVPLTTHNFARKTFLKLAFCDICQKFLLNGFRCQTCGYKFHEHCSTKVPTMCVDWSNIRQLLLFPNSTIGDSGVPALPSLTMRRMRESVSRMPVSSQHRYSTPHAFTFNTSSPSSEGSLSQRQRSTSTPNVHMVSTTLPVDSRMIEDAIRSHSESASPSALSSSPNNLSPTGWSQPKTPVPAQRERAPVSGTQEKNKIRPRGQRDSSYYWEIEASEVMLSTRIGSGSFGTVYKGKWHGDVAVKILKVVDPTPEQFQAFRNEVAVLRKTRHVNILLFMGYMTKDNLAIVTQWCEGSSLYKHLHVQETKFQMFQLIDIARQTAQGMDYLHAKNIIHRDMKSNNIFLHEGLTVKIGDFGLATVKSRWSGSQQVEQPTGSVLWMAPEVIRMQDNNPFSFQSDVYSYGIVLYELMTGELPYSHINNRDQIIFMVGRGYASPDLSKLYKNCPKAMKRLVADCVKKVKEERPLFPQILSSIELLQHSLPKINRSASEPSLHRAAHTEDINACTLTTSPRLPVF
T3 sequence (P10721 26-976): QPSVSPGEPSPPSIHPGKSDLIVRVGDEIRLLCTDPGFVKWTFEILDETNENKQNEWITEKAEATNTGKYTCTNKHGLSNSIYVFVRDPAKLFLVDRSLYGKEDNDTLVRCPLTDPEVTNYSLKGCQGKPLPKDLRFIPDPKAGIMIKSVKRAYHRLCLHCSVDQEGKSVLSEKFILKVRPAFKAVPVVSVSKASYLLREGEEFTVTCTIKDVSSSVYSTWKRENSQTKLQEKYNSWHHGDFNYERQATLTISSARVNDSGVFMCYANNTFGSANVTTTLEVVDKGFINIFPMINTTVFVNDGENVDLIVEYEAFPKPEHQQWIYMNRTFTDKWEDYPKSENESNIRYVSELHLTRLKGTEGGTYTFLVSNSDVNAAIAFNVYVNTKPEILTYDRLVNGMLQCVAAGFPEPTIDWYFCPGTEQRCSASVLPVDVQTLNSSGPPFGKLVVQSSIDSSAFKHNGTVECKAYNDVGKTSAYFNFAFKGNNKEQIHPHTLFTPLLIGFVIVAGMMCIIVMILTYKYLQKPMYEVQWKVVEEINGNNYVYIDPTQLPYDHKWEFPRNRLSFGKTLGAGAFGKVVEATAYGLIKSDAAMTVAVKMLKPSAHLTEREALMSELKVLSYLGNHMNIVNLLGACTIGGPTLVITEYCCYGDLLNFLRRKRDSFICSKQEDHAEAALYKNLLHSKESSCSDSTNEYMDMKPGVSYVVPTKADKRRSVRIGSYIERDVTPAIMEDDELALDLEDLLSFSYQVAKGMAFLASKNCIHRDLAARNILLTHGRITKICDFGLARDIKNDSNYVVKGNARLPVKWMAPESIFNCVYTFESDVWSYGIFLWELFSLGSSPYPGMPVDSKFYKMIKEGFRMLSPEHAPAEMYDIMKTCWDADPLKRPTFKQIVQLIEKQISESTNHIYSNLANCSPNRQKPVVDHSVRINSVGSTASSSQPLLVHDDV
T1 sequence (P15056 433-726 V600E): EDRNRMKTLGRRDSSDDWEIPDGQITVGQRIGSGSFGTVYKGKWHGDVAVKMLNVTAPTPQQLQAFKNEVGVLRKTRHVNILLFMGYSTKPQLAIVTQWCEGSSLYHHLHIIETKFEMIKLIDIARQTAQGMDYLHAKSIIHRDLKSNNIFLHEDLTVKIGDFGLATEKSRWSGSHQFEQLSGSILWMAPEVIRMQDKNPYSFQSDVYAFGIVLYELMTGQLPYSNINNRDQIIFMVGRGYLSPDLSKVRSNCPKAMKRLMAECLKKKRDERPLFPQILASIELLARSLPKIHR

Row | IC50 (human B-Raf V600E) | IC50 (human wild type C-Raf) | IC50 (human wild type c-KIT) | IC50 (HT-29 cells) | Compound
1 | < 150 nM | < 150 nM | < 0.15 µM | < 100 nM | CNc1ncc2cc(-c3cc(NC(=O)NCC(O)C(C)(C)C)c(F)cc3C)c(C)nc2n1 (centres unmarked) [Example 15, 1-[2-Fluoro-4-methyl-5-(7-methyl-2-methylamino-pyrido[2,3-d]pyrimidin-6-yl)phenyl]-3-(2-hydroxy-3,3-dimethyl-butyl)urea]
2 | < 150 nM | < 150 nM | < 0.15 µM | < 100 nM | Cc1cc(F)c(NC(=O)NCCC(C)(C)C)cc1-c1cc2cnc(NCCO)nc2nc1C [Example 16, 1-(3,3-Dimethylbutyl)-3-[2-fluoro-5-[2-(2-hydroxyethylamino)-7-methyl-pyrido[2,3-d]pyrimidin-6-yl]-4-methyl-phenyl]urea]
3 | < 150 nM | < 150 nM | < 0.15 µM | < 100 nM | Cc1cc(F)c(NC(=O)NCCC(C)(C)C)cc1-c1cc2cnc(NCCN(C)C)nc2nc1C [Example 17, 1-[5-[2-(2-Dimethylaminoethylamino)-7-methyl-pyrido[2,3-d]pyrimidin-6-yl]-2-fluoro-4-methyl-phenyl]-3-(3,3-dimethylbutyl)urea]
4 | < 150 nM | < 150 nM | < 0.15 µM | < 100 nM | Cc1cc(F)c(NC(=O)NCCC(C)(C)C)cc1-c1cc2cnc(N)nc2nc1C [Example 20, 1-(5-(2-Amino-7-methylpyrido[2,3-d]pyrimidin-6-yl)-2-fluoro-4-methylphenyl)-3-(3,3-dimethylbutyl)urea]
5 | < 150 nM | < 150 nM | < 0.15 µM | < 100 nM | Cc1cc(F)c(NC(=O)NCCC(C)(C)C)cc1-c1cc2cnc(NCCN3CCOCC3)nc2nc1C [Example 21, 1-(3,3-Dimethylbutyl)-3-(2-fluoro-4-methyl-5-(7-methyl-2-((2-morpholinoethyl)amino)pyrido[2,3-d]pyrimidin-6-yl)phenyl)ure]
6 | < 150 nM | < 150 nM | < 0.15 µM | < 100 nM | Cc1cc(F)c(NC(=O)NCCC(C)(C)C)cc1-c1cc2cnc(NCc3cn(C)cn3)nc2nc1C [Example 22, 1-(3,3-Dimethylbutyl)-3-(2-fluoro-4-methyl-5-(7-methyl-2-(((1-methyl-1H-imidazol-4-yl)methyl)amino)pyrido[2,3-d]pyrimidin-6-yl)phenyl)urea]
7 | < 150 nM | < 150 nM | < 0.15 µM | < 100 nM | Cc1cc(F)c(NC(=O)NCCC2(C)CC2)cc1-c1cc2cnc(N)nc2nc1C [Example 23, 1-(5-(2-Amino-7-methylpyrido[2,3-d]pyrimidin-6-yl)-2-fluoro-4-methylphenyl)-3-(2-(1-methylcyclopropyl)ethyl)urea]
8 | < 150 nM | < 150 nM | < 0.15 µM | < 100 nM | CNc1ncc2cc(-c3cc(NC(=O)NCCC4(C)CC4)c(F)cc3C)c(C)nc2n1 [Example 24, 1-(2-Fluoro-4-methyl-5-(7-methyl-2-(methylamino)pyrido[2,3-d]pyrimidin-6-yl)phenyl)-3-(2-(1-methylcyclopropyl)ethyl)urea]
9 | < 150 nM | < 150 nM | < 0.15 µM | < 100 nM | Cc1cc(F)c(NC(=O)NCCC(C)(C)F)cc1-c1cc2cnc(NC3COC3)nc2nc1C [Example 25, 1-(3-Fluoro-3-methylbutyl)-3-(2-fluoro-4-methyl-5-(7-methyl-2-(oxetan-3-ylamino)pyrido[2,3-d]pyrimidin-6-yl)phenyl)urea]
10 | < 150 nM | < 150 nM | < 0.15 µM | < 100 nM | CCNc1ncc2cc(-c3cc(NC(=O)NCCC(C)(C)F)c(F)cc3C)c(C)nc2n1 [Example 26, 1-(5-(2-(Ethylamino)-7-methylpyrido[2,3-d]pyrimidin-6-yl)-2-fluoro-4-methylphenyl)-3-(3-fluoro-3-methylbutyl)urea]
11 | < 150 nM | < 150 nM | < 0.15 µM | < 100 nM | CNc1ncc2cc(-c3cc(NC(=O)NCCC(C)(C)C(F)(F)F)c(F)cc3C)c(C)nc2n1 [Example 27, 1-(2-Fluoro-4-methyl-5-(7-methyl-2-(methylamino)pyrido[2,3-d]pyrimidin-6-yl)phenyl)-3-(4,4,4-trifluoro-3,3-dimethylbutyl)urea]
12 | < 150 nM | < 150 nM | < 0.15 µM | 100 to 1000 nM | Cc1cc(F)c(NC(=O)NCCC(C)(C)F)cc1-c1cc2cnc(N)nc2nc1C [Example 28, 1-(5-(2-Amino-7-methylpyrido[2,3-d]pyrimidin-6-yl)-2-fluoro-4-methylphenyl)-3-(3-fluoro-3-methylbutyl)urea]
13 | < 150 nM | < 150 nM | < 0.15 µM | 100 to 1000 nM | Cc1cc(F)c(NC(=O)NCCC(C)(C)F)cc1-c1cc2cnc(NCCO)nc2nc1C [Example 29, 1-(3-Fluoro-3-methylbutyl)-3-(2-fluoro-5-(2-((2-hydroxyethyl)amino)-7-methylpyrido[2,3-d]pyrimidin-6-yl)-4-methylphenyl)urea]
14 | < 150 nM | < 150 nM | < 0.15 µM | < 100 nM | CNc1ncc2cc(-c3cc(NC(=O)NCCC4(C(F)(F)F)CC4)c(F)cc3C)c(C)nc2n1 [Example 30, 1-(2-Fluoro-4-methyl-5-(7-methyl-2-(methylamino)pyrido[2,3-d]pyrimidin-6-yl)phenyl)-3-(2-(1-(trifluoromethyl)cyclopropyl)ethyl)urea]
